In patent US10166217B2, “Fungal keratitis prophylactic or therapeutic agent” (SANTEN PHARMACEUTICAL CO., LTD., priority 2015, dated 2019):

System: C. albicans
Test: Test to evaluate pharmacological effect of rapamycin on animal (rabbit) model of keratomycosis
Assay type: in vivo, New Zealand white rabbit
Experimental: Test to evaluate pharmacological effect of rapamycin on animal (rabbit) model of keratomycosis
4% (w/w) rapamycin solution: This sample was prepared by dissolving rapamycin (Chunghwa Chemical Synthesis & Biotech Co., Ltd.) in a solution containing 4% (w/w) ethanol and […] polyethylene glycol 400.
About 10 μL of a C. albicans solution (1×10^4 CFU/mL to 5×10^4 CFU/mL) was administered to the central corneal stroma of the right eye of a male New Zealand white rabbit of about 3 kg, and thereby an animal (rabbit) model of keratomycosis was prepared (Cornea, Volume 26, Number 3, 336-342, April 2007).
For a base administered group (Group 1; N=4), 20 μL of a base (a solution containing 4% (w/w) ethanol and 96% (w/w) polyethylene glycol 400) was administered subconjunctivally on the day of induction.
For a rapamycin administered group (Group 2; N=4), 20 μL of a 4% (w/w) rapamycin solution (0.88 mg rapamycin) was administered subconjunctivally on the day of induction.

In the case of `CO[C@H]1C[C@@H]2CC[C@@H](C)[C@@](O)(O2)C(=O)C(=O)N2CCCC[C@H]2C(=O)O[C@H]([C@H](C)C[C@@H]2CC[C@@H](O)[C@H](OC)C2)CC(=O)[C@H](C)/C=C(\C)[C@@H](O)[C@@H](OC)C(=O)[C@H](C)C[C@H](C)/C=C/C=C/C=C/1C` [rapamycin], the “clinical scores (McDonald-Shadduck scoring system, slit lamp)” value (20 μL of 4% (w/w) rapamycin solution (0.88 mg rapamycin), single subconjunctival administration on day of induction, right eye, post-induction days 2 and 5, compared with base administered group, N=4) is reported as “lower than those of the base administered group” and the “duration for which remarkable therapeutic effect on keratomycosis is maintained” value (single subconjunctival administration of an injection containing rapamycin, polyethylene glycol and ethanol, rabbit C. albicans keratomycosis model) is reported as “at least 5 days”.
